Results from patent US20250382332A1, “NOVEL ALPHA-FACTOR BASED PEPTIDES WITH ANTIFUNGAL ACTIVITY” (INVAIO SCIENCES, INC., priority 2024, published 2025).
Peptide text beside a SMILES is read from it.

Tested on: Botrytis cinerea (B05.10)
Assay: Resazurin antifungal assay of 180 alpha-factor peptide variants towards Botrytis (Example 2)
Format: cell-based
Conditions: % inhibition of fungal growth, Botrytis conidia, resazurin; for Inhibition at 10 μM: peptide 10 μM; for Inhibition at 20 μM: peptide 20 μM; for Inhibition at 50 μM: peptide 50 μM; for Inhibition at 100 μM: peptide 100 μM; for Inhibition at 15 μM: peptide 15 μM
Outline: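 Resazurin viability read-out (570/620 nm fluorescence) after a 24 h, 20° C incubation of B05.10 conidia, 5000 per well, with peptide at final 10-100 μM. Growth inhibition (%) was derived by subtracting conidia-only fluorescence; four replicates per treatment.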

Structure (SMILES) | Inhibition at 10 μM [%] | Inhibition at 20 μM [%] | Inhibition at 50 μM [%] | Inhibition at 100 μM [%] | Inhibition at 15 μM [%]
CC[C@H](C)[C@H](NC(=O)[C@H](CC(=O)O)NC(=O)[C@H](CCCNC(=N)N)NC(=O)[C@@H](N)Cc1c[nH]c2ccccc12)C(=O)N[C@@H](CCCNC(=N)N)C(=O)N[C@@H](CC(C)C)C(=O)N[C@@H](CCCCN)C(=O)N[C@@H](CCCCN)C(=O)NCC(=O)N[C@@H](CCC(N)=O)C(=O)N1CCC[C@H]1C(=O)N[C@@H](CCSC)C(=O)N[C@@H](Cc1ccc(O)cc1)C(=O)O [compound 79] (H-WRDIRLKKGQPMY-OH; N-terminus and C-terminus assumed) | <90 | <90 | 100 | 100 | –
CSCC[C@H](NC(=O)[C@@H]1CCCN1C(=O)[C@H](CCC(N)=O)NC(=O)CNC(=O)[C@@H]1CCCN1C(=O)[C@H](CCCCN)NC(=O)[C@H](Cc1ccccc1)NC(=O)[C@H](CCCNC(=N)N)NC(=O)[C@H](CC(C)C)NC(=O)[C@@H](NC(=O)[C@H](Cc1c[nH]cn1)NC(=O)[C@@H](N)CCCCN)[C@@H](C)O)C(=O)N[C@@H](Cc1ccc(O)cc1)C(=O)O [compound 80] (H-KHTLRFKPGQPMY-OH; N-terminus and C-terminus assumed) | <90 | 99.56 | 100 | 100 | <90
CC[C@H](C)[C@H](NC(=O)[C@H](Cc1c[nH]c2ccccc12)NC(=O)[C@H](Cc1c[nH]cn1)NC(=O)[C@@H](N)CCCCN)C(=O)N[C@@H](CCCCN)C(=O)N[C@@H](CC(C)C)C(=O)N[C@@H](CCCCN)C(=O)N[C@@H](CC(N)=O)C(=O)NCC(=O)N[C@@H](CCC(N)=O)C(=O)N1CCC[C@H]1C(=O)N[C@@H](CCSC)C(=O)N[C@@H](Cc1ccc(O)cc1)C(=O)O [compound 81] (H-KHWIKLKNGQPMY-OH; N-terminus and C-terminus assumed) | <90 | 99.51 | 100 | 100 | <90
CSCC[C@H](NC(=O)[C@@H]1CCCN1C(=O)[C@H](CCC(N)=O)NC(=O)CNC(=O)[C@@H](NC(=O)[C@H](CCCCN)NC(=O)[C@H](CC(C)C)NC(=O)[C@H](CO)NC(=O)CNC(=O)[C@H](Cc1c[nH]c2ccccc12)NC(=O)[C@H](Cc1c[nH]cn1)NC(=O)[C@@H](N)Cc1c[nH]c2ccccc12)C(C)C)C(=O)N[C@@H](Cc1ccc(O)cc1)C(=O)O [compound 82] (H-WHWGSLKVGQPMY-OH; N-terminus and C-terminus assumed) | <90 | <90 | 100 | 100 | –
CSCC[C@H](NC(=O)[C@@H]1CCCN1C(=O)[C@H](CCC(N)=O)NC(=O)CNC(=O)[C@@H]1CCCN1C(=O)[C@H](CCCCN)NC(=O)[C@H](CC(C)C)NC(=O)[C@H](CCCNC(=N)N)NC(=O)[C@H](CC(C)C)NC(=O)[C@@H](NC(=O)[C@H](Cc1c[nH]cn1)NC(=O)[C@@H](N)CCCCN)[C@@H](C)O)C(=O)N[C@@H](Cc1ccc(O)cc1)C(=O)O [compound 83] (H-KHTLRLKPGQPMY-OH; N-terminus and C-terminus assumed) | <90 | 99.92 | 100 | 100 | <90
CSCC[C@H](NC(=O)[C@H](Cc1c[nH]cn1)NC(=O)[C@@H](N)CCCCN)C(=O)N[C@@H](CC(C)C)C(=O)N[C@@H](CCCNC(=N)N)C(=O)N[C@@H](Cc1ccccc1)C(=O)N[C@@H](CCCCN)C(=O)N1CCC[C@H]1C(=O)NCC(=O)N[C@@H](CCC(N)=O)C(=O)N1CCC[C@H]1C(=O)N[C@@H](CCSC)C(=O)N[C@@H](Cc1ccc(O)cc1)C(=O)O [compound 84] (H-KHMLRFKPGQPMY-OH; N-terminus and C-terminus assumed) | <90 | 97.08 | 100 | 100 | <90
CSCC[C@H](NC(=O)[C@@H]1CCCN1C(=O)[C@H](CCC(=O)O)NC(=O)CNC(=O)[C@@H]1CCCN1C(=O)[C@H](CCCCN)NC(=O)[C@H](Cc1ccccc1)NC(=O)[C@H](CCCCN)NC(=O)[C@H](CC(C)C)NC(=O)[C@H](Cc1ccccc1)NC(=O)[C@H](Cc1c[nH]cn1)NC(=O)[C@@H](N)Cc1c[nH]c2ccccc12)C(=O)N[C@@H](Cc1ccc(O)cc1)C(=O)O [compound 85] (H-WHFLKFKPGEPMY-OH; N-terminus and C-terminus assumed) | <90 | <90 | 100 | 100 | –
CC[C@H](C)[C@H](NC(=O)[C@H](CCCCN)NC(=O)[C@H](CC(C)C)NC(=O)[C@H](Cc1ccccc1)NC(=O)[C@H](Cc1c[nH]cn1)NC(=O)[C@@H](N)CCCCN)C(=O)N[C@@H](CCCCN)C(=O)N1CCC[C@H]1C(=O)NCC(=O)N[C@@H](CCC(N)=O)C(=O)N1CCC[C@H]1C(=O)N[C@@H](CCSC)C(=O)N[C@@H](Cc1ccc(O)cc1)C(=O)O [compound 86] (H-KHFLKIKPGQPMY-OH; N-terminus and C-terminus assumed) | <90 | 99.49 | 100 | 100 | <90
CSCC[C@H](NC(=O)[C@@H]1CCCN1C(=O)[C@H](CCC(N)=O)NC(=O)CNC(=O)[C@@H]1CCCN1C(=O)[C@H](CCCCN)NC(=O)[C@H](Cc1ccccc1)NC(=O)[C@H](CCCCN)NC(=O)[C@H](CC(C)C)NC(=O)[C@@H](NC(=O)[C@H](Cc1c[nH]cn1)NC(=O)[C@@H](N)CCCCN)C(C)C)C(=O)N[C@@H](Cc1ccc(O)cc1)C(=O)O [compound 87] (H-KHVLKFKPGQPMY-OH; N-terminus and C-terminus assumed) | <90 | 98.89 | 100 | 100 | <90
CSCC[C@H](NC(=O)[C@@H]1CCCN1C(=O)[C@H](CCC(N)=O)NC(=O)CNC(=O)[C@@H]1CCCN1C(=O)[C@H](CCCCN)NC(=O)[C@H](CC(C)C)NC(=O)[C@H](CCCNC(=N)N)NC(=O)[C@H](CC(C)C)NC(=O)[C@H](CC(C)C)NC(=O)[C@H](Cc1c[nH]cn1)NC(=O)[C@@H](N)CCCCN)C(=O)N[C@@H](Cc1ccc(O)cc1)C(=O)O [compound 88] (H-KHLLRLKPGQPMY-OH; N-terminus and C-terminus assumed) | <90 | <90 | 99.75 | 100 | –
CC[C@H](C)[C@H](NC(=O)[C@H](CCCCN)NC(=O)[C@H](Cc1ccccc1)NC(=O)[C@H](CCC(=O)O)NC(=O)[C@H](CC(C)C)NC(=O)[C@H](CO)NC(=O)[C@H](Cc1c[nH]cn1)NC(=O)[C@@H](N)Cc1c[nH]c2ccccc12)C(=O)NCC(=O)N[C@@H](CCC(N)=O)C(=O)NCC(=O)N[C@@H](CCSC)C(=O)N[C@@H](Cc1ccc(O)cc1)C(=O)O [compound 89] (H-WHSLEFKIGQGMY-OH; N-terminus and C-terminus assumed) | <90 | <90 | 99.55 | 100 | –
CC[C@H](C)[C@H](NC(=O)[C@H](CCC(N)=O)NC(=O)[C@H](CC(C)C)NC(=O)[C@H](Cc1ccccc1)NC(=O)[C@H](Cc1c[nH]cn1)NC(=O)[C@@H](N)Cc1c[nH]c2ccccc12)C(=O)N[C@@H](CCCCN)C(=O)N1CCC[C@H]1C(=O)NCC(=O)N[C@@H](CCC(N)=O)C(=O)NCC(=O)N[C@@H](CCSC)C(=O)N[C@@H](Cc1ccc(O)cc1)C(=O)O [compound 90] (H-WHFLQIKPGQGMY-OH; N-terminus and C-terminus assumed) | <90 | <90 | 99.27 | 100 | –
CSCC[C@H](NC(=O)[C@@H]1CCCN1C(=O)[C@H](CCC(N)=O)NC(=O)CNC(=O)[C@H](CC(N)=O)NC(=O)[C@H](CCCCN)NC(=O)[C@H](CC(C)C)NC(=O)[C@H](CCCCN)NC(=O)[C@H](CC(C)C)NC(=O)[C@H](Cc1c[nH]c2ccccc12)NC(=O)[C@H](CCC(N)=O)NC(=O)[C@@H](N)CCCCN)C(=O)N[C@@H](Cc1ccc(O)cc1)C(=O)O [compound 91] (H-KQWLKLKNGQPMY-OH; N-terminus and C-terminus assumed) | <90 | <90 | 98.66 | 100 | –
CSCC[C@H](NC(=O)[C@@H]1CCCN1C(=O)[C@H](CCC(N)=O)NC(=O)CNC(=O)[C@@H]1CCCN1C(=O)[C@H](CCCCN)NC(=O)[C@H](Cc1ccccc1)NC(=O)[C@H](CCCNC(=N)N)NC(=O)[C@H](CC(C)C)NC(=O)[C@@H](NC(=O)[C@H](Cc1c[nH]cn1)NC(=O)[C@@H](N)Cc1c[nH]c2ccccc12)[C@@H](C)O)C(=O)N[C@@H](Cc1ccc(O)cc1)C(=O)O [compound 92] (H-WHTLRFKPGQPMY-OH; N-terminus and C-terminus assumed) | <90 | <90 | 98.44 | 98.95 | –
CSCC[C@H](NC(=O)[C@@H]1CCCN1C(=O)[C@H](CCC(N)=O)NC(=O)CNC(=O)[C@H](CCCNC(=N)N)NC(=O)[C@H](CCCCN)NC(=O)[C@H](CC(C)C)NC(=O)[C@H](CCC(N)=O)NC(=O)[C@H](CC(C)C)NC(=O)[C@@H](NC(=O)[C@H](Cc1c[nH]cn1)NC(=O)[C@@H](N)CCCCN)[C@@H](C)O)C(=O)N[C@@H](Cc1ccc(O)cc1)C(=O)O [compound 93] (H-KHTLQLKRGQPMY-OH; N-terminus and C-terminus assumed) | <90 | <90 | 97.77 | 100 | –
